The values below come from patent EP4772186A1, “USE AND COMPOSITION OF POSTBIOTIC OF LACTOBACILLUS PARACASEI ET-22” (Inner Mongolia Yili Industrial Group Co., Ltd., priority 2023, dated 2025).

In one test the test system is Solobacterium moorei. The test can be described thus: in vitro oral biofilm model, sequencing: relative abundance. It counts as cell-based. How it is done:
100 µl of saliva was added to a 24-well plate, then 100 µl of the corresponding concentration solution was added respectively to the experimental groups, and finally 800 µl of SHI medium was added. The plate was placed in an anaerobic box and cultured anaerobically at 37°C for 10 hours. Then, the supernatant was discarded, and the multi-species biofilm adhered to the well plate was obtained. After discarding the supernatant from the incubated biofilm, the biofilm adhered to the bottom of the well plate was re-suspended with sterile water by pipetting, transferred to a 1.5 ml centrifuge tube, and stored until gene sequencing was performed.
Based on sequencing results, halitosis-causing pathogenic bacteria in the biofilm were identified. Four key halitosis-causing pathogenic bacteria were identified: Fusobacterium nucleatum, Streptococcus mutans, Prevotella intermedia, and Solobacterium moorei. All four bacteria had been proven to be positively correlated with VSC concentration. […] Therefore, this example adopts lysate, NAD, 2-hydroxy-3-phenylpropionic acid, and polypeptide GP(Hyp)GAG to intervene in halitosis-causing pathogenic bacteria in the biofilm, evaluating changes in the relative abundance of pathogenic bacteria after intervention. Additionally, Prevotella intermedia is a periodontal pathogen that can produce indole via the tryptophan metabolic pathway. […]

Test [1] has as its system indole, hexanoic acid, and propanoic acid. Kind of test: SPME-GC-MS of characteristic flavor compounds. It counts as cell-based, halitosis subjects (saliva). How it is done:
Fresh saliva was collected from 10 halitosis subjects (Halimeter index >120). Subjects were required not to consume any food or drink for 2 hours before donating saliva. Saliva was directly spat into a saliva collection tube, 5 ml per person, and mixed. The mixture was centrifuged at 4500 rpm for 10 minutes, and the supernatant was collected, aliquoted, and stored at -80°C for subsequent experimental studies.
Lysate group: In a headspace vial, 100 µl of saliva was added first, followed by separate addition of ET-22 viable bacteria (1.0×10^9 CFU/ml), ET-22 heat-inactivated bacterial cells (obtained by inactivating viable bacteria at 1.0×10^9 CFU/ml), and lysate (obtained by inactivating and then filtering viable bacteria at 1.0×10^9 CFU/ml), each at 100µl. Then, 800 µl of SHI medium was added. After filling with nitrogen, anaerobic cultivation was performed for 10 hours for loading on machine, and then SPME-GC-MS was used to test the change in content of volatile organic compound.
NAD group: In a headspace vial, 100 µl of saliva was added first, followed by the separate addition of ET-22 viable bacteria (1.0×10^9 CFU/ml), ET-22 heat-inactivated bacterial cells (obtained by heat-inactivating viable bacteria at 1.0×10^9 CFU/ml), and NAD (100 µg/ml), each at 100µl. Then, 800 µl of SHI medium was added. After filling with nitrogen, anaerobic cultivation was performed for 10 hours for loading on machine, then SPME-GC-MS was used to test the changes in content of volatile organic compound.
2-hydroxy-3-phenylpropionic acid group: In a headspace vial, 100 µl of saliva was added first, followed by the separate addition of ET-22 viable bacteria (1.0×10^9 CFU/ml), ET-22 heat-inactivated bacterial cells (obtained by heat-inactivating viable bacteria at 1.0×10^9 CFU/ml), and 2-hydroxy-3-phenylpropionic acid (100 µg/ml), each at 100µl. Then, 800 µl of SHI medium was added. After filling with nitrogen, anaerobic cultivation was performed for 10 hours for loading on machine, and then SPME-GC-MS was used to test the changes in content of volatile organic compound.
GP(HYP)GAG group: In a headspace vial, 100 µl of saliva was added first, followed by the separate addition of ET-22 viable bacteria (1.0×10^9 CFU/ml), ET-22 heat-inactivated bacterial cells (obtained by heat-inactivating viable bacteria at 1.0×10^9 CFU/ml), and GP(HYP)GAG (100 µg/ml), each at 100µl. Then, 800 µl of SHI medium was added. After filling with nitrogen, anaerobic cultivation was performed for 10 hours for loading on machine, and then SPME-GC-MS was used to test the changes in content of volatile organic compound.
Peptidoglycan group: In a headspace vial, 100 µl of saliva was added first, followed by separate addition of ET-22 viable bacteria (1.0×10^9 CFU/ml), ET-22 heat-inactivated bacterial cells (same as Example 1), and peptidoglycan (same as Example 1), each at 100µl. Then, 800 µl of SHI medium was added. After filling with nitrogen, anaerobic cultivation was performed for 10 hours for loading on machine, and then SPME-GC-MS was used to test the changes in content of volatile organic compound.
Helium was used as a carrier gas, with a rate remaining at 1.1 mL min-1. The injector temperature was set at 250°C. Oven temperature program was as follows: holding at 40°C for 1 min, then ramping to 120°C at a rate of 8°C/min, followed by increasing to 230°C at a rate of 5°C/min and holding for 10 minutes. The mass spectrometer was operated in electron ionization (EI) mode, with ion source temperature of 230°C, interface temperature of 200°C, and M/Z scan range of 30-400. To identify specific compounds, their mass spectra were compared with those of true compounds given in the NIST 17 database (V.05). The minimum matching quality for forward and reverse matches was 75/100. The flavor characteristic of each compound was determined based on data from the Good Scents Company Information System (http://www.thegoodscentscompany.com). […]

Where [2] appears, read: pure components 100 µg/ml, others from 1.0×10^9 CFU/ml, 10 hours.
The mark [3] stands for this setting: relative to ET-22 viable bacteria and heat-inactivated bacteria.

Regarding `O=C(O)C(O)Cc1ccccc1` (centres unmarked) [2-hydroxy-3-phenylpropionic acid], the “growth of Solobacterium moorei (relative abundance)” value with Solobacterium moorei (multi-species biofilm, 37°C 10 hours) was “significantly inhibit the growth”. Also, the “inhibitory effect on Solobacterium moorei” value with Solobacterium moorei (relative to ET-22 viable bacteria or ET-22 heat-inactivated bacteria) is given as “better”. In addition, in test [1] (setting [2]), the hexanoic acid concentration result is “significantly decrease”, the indole concentration result is “significantly decrease” and the propanoic acid concentration entry is “significantly decrease”. In addition, in test [1] (setting [3]), the “intervention effect on hexanoic acid” value is on record as “better”, the “intervention effect on indole” value was “better” and the “intervention effect on propanoic acid” value is “better”.
